Measurements published in patent publication US20180318383A1, “PEPTIDE HAVING NEURONAL LOSS PREVENTION AND REGENERATION EFFECTS, AND COMPOSITION CONTAINING SAME” (GEMVAX & KAEL CO., LTD., priority 2015, published 2018).

Tests used:
[1] = tested on: AD transgenic mice (3XTg-AD); assay: Y-maze test; format: in vivo
Procedure: (§1) To test the efficacy of PEP1 on AD, AD transgenic mice (3XTg-AD) were purchased from Jackson Laboratory. Genetic characteristics of the transgenic mice are as follows: B6; 129-Psen1tm1Mpm Tg(APPSwe, tauP301L)1Lfa/Mmjax. […] One week after mice were confirmed as pregnant, new mice were delivered and weaned for 3 weeks. Two weeks later, mature mice were obtained.
(§2) During the preliminary breeding and the entire period of the experiment, a temperature was maintained at 23±2° C. and a relative humidity was maintained at 60±10%, and then the mice were raised under a 12-hour dark/light cycle. Experimental animals were divided into five groups, and each group included 10 animals. The divided experimental groups are as follows. […]
(§3) The PEP1, physiological saline, donepezil and scramble peptide were subcutaneously injected at each concentration three times a week for two months from the age of 12 months, and then two months after the injection, cognitive/memory behavior tests (passive avoidance test and Y maze test) were performed to examine a degree of improvement in cognitive function and memory function. After the brain was extracted to separate the hippocampus, the amounts of amyloid beta in the hippocampus and the whole brain, and the amounts of an amyloid beta oligomer and NFT generated by tau hyperphosphorylation were determined by western blotting and immunostaining. […]

[2] = tested on: oligomer Aβ; assay: Expression level of oligomer Aβ in 3XTg-AD mice (western blotting); format: in vivo; settings: hippocampus and whole brain; vs control and Donepezil
Procedure: as §1, §2, §3

Sequence: EARPALLTSRLRFIPK (homo sapiens) [PEP1, hTERT-derived peptide consisting of 16 amino acids, telomerase location [611-626]]
- behavioral judgment (Y-maze test) ([1]; 3XTg-AD mice, treated from age 12 months, vs control and Donepezil): excellent behavioral judgment
- ability to select a new path (spontaneous alteration (%)), Y-maze test ([1]; severe AD models, 20-month-old or older 3XTg-AD mice, PEP1 1 mg/kg s.c., vs physiological saline): increased
- expression level of oligomer Aβ [2]: decreased
